The source made the active and inactive calls. The calls are words filed in the database; no cut-off is given here.
What was measured:
[1] = biological target: T1, Extracellular calcium-sensing receptor (Homo sapiens, UniProt P41180); test: Activity at human CaSR expressed in HEK293 cells assessed as calcium release by FLIPR assay; format: functional, cell-based
T1 sequence (P41180 whole entry): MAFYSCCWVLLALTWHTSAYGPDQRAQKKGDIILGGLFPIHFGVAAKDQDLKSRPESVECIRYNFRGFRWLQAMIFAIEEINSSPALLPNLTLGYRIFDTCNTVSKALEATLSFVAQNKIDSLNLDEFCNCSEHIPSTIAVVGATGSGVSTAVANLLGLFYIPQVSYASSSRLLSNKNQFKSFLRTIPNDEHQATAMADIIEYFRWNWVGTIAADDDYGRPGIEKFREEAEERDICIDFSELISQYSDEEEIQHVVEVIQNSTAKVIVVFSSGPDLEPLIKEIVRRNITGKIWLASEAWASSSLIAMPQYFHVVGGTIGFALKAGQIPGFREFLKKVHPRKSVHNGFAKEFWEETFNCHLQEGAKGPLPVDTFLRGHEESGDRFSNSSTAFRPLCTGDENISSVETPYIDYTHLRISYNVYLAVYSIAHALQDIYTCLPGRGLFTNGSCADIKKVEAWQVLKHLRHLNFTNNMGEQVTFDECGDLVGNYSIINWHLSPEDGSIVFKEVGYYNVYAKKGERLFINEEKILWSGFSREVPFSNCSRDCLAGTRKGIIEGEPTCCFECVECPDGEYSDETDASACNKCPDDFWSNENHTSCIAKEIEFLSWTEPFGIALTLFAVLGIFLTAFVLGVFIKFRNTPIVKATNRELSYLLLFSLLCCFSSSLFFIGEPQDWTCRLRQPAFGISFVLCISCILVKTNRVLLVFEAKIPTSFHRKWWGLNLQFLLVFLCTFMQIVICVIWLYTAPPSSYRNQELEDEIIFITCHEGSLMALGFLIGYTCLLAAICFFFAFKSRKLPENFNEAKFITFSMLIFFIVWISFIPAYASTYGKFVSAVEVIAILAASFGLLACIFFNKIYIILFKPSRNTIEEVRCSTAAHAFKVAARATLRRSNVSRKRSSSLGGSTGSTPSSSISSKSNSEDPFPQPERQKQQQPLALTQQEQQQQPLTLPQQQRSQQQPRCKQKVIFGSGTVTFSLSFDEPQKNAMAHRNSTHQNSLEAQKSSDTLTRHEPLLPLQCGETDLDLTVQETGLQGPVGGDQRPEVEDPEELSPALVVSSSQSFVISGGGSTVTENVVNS

Rattus norvegicus [2] = test: Oral bioavailability in Sprague-Dawley rat at 2 mg/kg; format: ADME, organism-based; details: in vivo
Rattus norvegicus [3] = test: Inhibition of hyperparathyroidism in Sprague-Dawley rat pharmacodynamic model assessed as decrease in PTH levels at 30 mg/kg, po; format: functional, organism-based; parameters: dose 30 mg/kg; details: Thyroid gland
[4] = Mean residence time in Sprague-Dawley rat at 0.5 mg/kg, iv; format: ADME, organism-based; parameters: dose 0.5 mg/kg, route intravenous; details: in vivo
Rattus norvegicus [5] = test: Clearance in Sprague-Dawley rat at 0.5 mg/kg, iv; format: ADME, organism-based; parameters: dose 0.5 mg/kg, route intravenous; details: in vivo
Rattus norvegicus [6] = test: Cmax in Sprague-Dawley rat at 2 mg/kg, po; format: ADME, organism-based; parameters: dose 2 mg/kg, route oral; details: in vivo
[7] = Volume of distribution at steady state in Sprague-Dawley rat at 0.5 mg/kg, iv; format: ADME, organism-based; parameters: dose 0.5 mg/kg, route intravenous; details: in vivo, read-out: Vdss
Rattus norvegicus [8] = test: AUC in Sprague-Dawley rat at 2 mg/kg, po; format: ADME, organism-based, Plasma; parameters: dose 2 mg/kg, route oral; details: in vivo
Rattus norvegicus [9] = test: Inhibition of hyperparathyroidism in Sprague-Dawley rat pharmacodynamic model assessed as PTH levels at 3 mg/kg, po; format: functional

| EC50 [1] [nM] | Structure (SMILES) | also measured |
| --- | --- | --- |
| 1920 | COc1cc([C@@H](C)N[C@H](C)c2cccc(Cl)c2)nn1-c1ccc(C(=O)O)cc1 | – |
| > 5000 | COc1cc([C@@H](C)N[C@H](C)c2cccc(Cl)c2)nn1-c1ccc(-c2nnn[nH]2)cc1 | – |
| 41 | COc1cc([C@@H](C)N[C@H](C)c2cccc(Cl)c2)nn1-c1ccc(C(F)(F)F)cc1 | – |
| > 5000 | C[C@@H](NCc1nc(-c2ccccc2)cn1C)c1ccccc1 | – |
| 2340 | CC(C)[C@@H](N[C@H](C)c1ccccc1)c1ccn(-c2ccc(C(F)(F)F)cc2)n1 | – |
| 57 | COc1cc([C@@H](C)N[C@H](C)c2cccc(Cl)c2)nn1-c1cccc(Cl)c1 | – |
| > 5000 | C[C@@H](NCc1cnc(-c2ccccc2)s1)c1ccccc1 | – |
| 1180 | CC[C@@H](N[C@H](C)c1ccccc1)c1ccn(-c2ccc(C(F)(F)F)cc2)n1 | – |
| 194 | COc1cccc([C@@H](C)NCCCc2ccccc2Cl)c1 [TECALCET] | F (Rattus norvegicus [2]): 5%; Activity (Rattus norvegicus [3]): Active; MRT [4]: 1.74 h; CL (Rattus norvegicus [5]): 65 mL/min/kg; Cmax (Rattus norvegicus [6]): 4.2 ng/mL; Vd [7]: 6.8 L/kg; AUC (Rattus norvegicus [8]): 22 ng·h/mL |
| > 5000 | C[C@@H](NCc1nc(-c2ccccc2)co1)c1ccccc1 | – |
| 148 | C[C@@H](N[C@H](C)c1ccn(-c2ccc(C(F)(F)F)cc2)n1)c1cccc(F)c1 | – |
| > 5000 | C[C@@H](NCc1nc(-c2ccccc2)cs1)c1ccccc1 | – |
| 23 | COc1cc([C@@H](C)N[C@H](C)c2cccc(Cl)c2)nn1-c1ccc(Br)cc1 | Activity (Rattus norvegicus [9]): <3 pg/mL; F (Rattus norvegicus [2]): 24%; MRT [4]: 11.8 h; CL (Rattus norvegicus [5]): 21.7 mL/min/kg; Vd [7]: 7 L/kg; AUC (Rattus norvegicus [8]): 444 ng·h/mL |
| 70 | COc1cc([C@@H](C)N[C@H](C)c2ccccc2)nn1-c1ccc(C(F)(F)F)cc1 | – |
| > 5000 | C[C@@H](NCc1nc(-c2ccccc2)c[nH]1)c1ccccc1 | – |
| 92 | C[C@@H](N[C@H](C)c1ccn(-c2ccc(C(F)(F)F)cc2)n1)c1cccc(Cl)c1 | – |
| 233 | C[C@@H](N[C@H](C)c1ccn(-c2ccc(C(F)(F)F)cc2)n1)c1ccccc1 | – |
| 1580 | C[C@@H](NCc1ccn(-c2ccccc2)n1)c1ccccc1 | – |

Source: ChEMBL document CHEMBL1154628, “Discovery and optimization of substituted 1-(1-phenyl-1H-pyrazol-3-yl)methanamines as potent and efficacious type II calcimimetics” (J Med Chem, 2009)
